Source: patent US7273866B2, “2-aryl thiazole derivatives as KCNQ modulators” (Bristol-Myers Squibb Company, priority 2002, dated 2007)

System: peripheral mononeuropathy nerve injury-induced tactile allodynia
Experiment: Chung model of neuropathic pain (Chung surgery and von Frey test)
Type: in vivo, Sprague Dawley rats
Conditions: 100 mg/kg, i.v.; von Frey thresholds over 90 min, rat
Procedure: Chung model of neuropathic pain (Chung surgery and von Frey test). To test agents for activity against peripheral mononeuropathy nerve injury-induced tactile allodynia, male Sprague Dawley rats (wt. 120-160 g) were surgically prepared with unilateral tight ligation of spinal nerves L5 and L6 following the method of Kim and Chung (Kim S. H., Chung J. M. (1992) Pain, September; 50(3):355-63). After 3-4 weeks recovery, paw withdrawal to light touch was assessed as described by Chaplan et al. (Chaplan S. R., et al., (1994) J. Neurosci Methods, July; 53(1):55-63). […] After acclimation, baseline von Frey thresholds were assessed for the injured hindpaw at −15 min. […] Following drug administration, von Frey thresholds were measured at 15, 30, 60 and 90 min. Data were analyzed by a 2-way repeated measures analysis of variance followed by Dunnett's test (p<0.05). […]
Reversal of neuropathic pain behavior may be expressed as a percentage (0-100%) of the maximum possible effect, over and above the vehicle effects. […]
For example, a compound which immediately reversed neuropathic pain behavior to normal levels, such that animals only responded to the highest von Frey filament (15 g), and maintained normal levels through out the post-drug testing period (90 min) would be calculated as Δ% MPE=100%.

## NCC1(CC(=O)O)CCCCC1 [Gabapentin, gabapentin, reference compound]
  AUC (Δ % MPE): 50 (100 mg/kg, i.v.) Δ % MPE
